“And” between values parts separate entries of the source, which are not always exact repeats. Equal entries are not always repeated. “Also recorded” adds a separate entry of the source.

From PMC6287599, “2,6-Bis(2-Benzimidazolyl)Pyridine (BBP) Is a Potent and Selective Inhibitor of Small Conductance Calcium-Activated Potassium (SK) Channels” (Frontiers in Pharmacology, 2018) come the findings set out here.

For one assay, the target named is hSK1 (Homo sapiens, UniProt Q92952). In words: Automated patch clamp (QPatch 16), whole cell, stable HEK293 cell line expressing hSK1. The following applies: HEK stable line, 400 nM free intracellular calcium, mean ± SEM, n = 9. The format is cell-based. On the procedure:
(§1) Three different stable HEK293 cell lines expressing hSK1, hSK2 or hSK3 (NeuroSearch A/S, Ballerup, Denmark) and a CHO stable cell line expressing hERG (University of Copenhagen, Copenhagen, Denmark) were used for automated patch clamp. These cells were cultivated and prepared as previously described (Skarsfeldt et al., [2016]).
(§2) Automated patch clamp (QPatch 16, Sophion, Denmark) on SK-expressing HEK293 cell lines was conducted as previously described (Simó-Vicens et al., [2017b]). Briefly, SK currents were elicited by voltage-ramps starting at −80 mV and finishing at +80 mV from a holding potential of 0 mV. Extracellular solution contained 0.1 mM CaCl2, 3 mM MgCl2, 154 mM KCl, 10 mM HEPES and 10 mM glucose with pH 7.4. Intracellular solution for SK experiments contained 8.106 mM CaCl2 (final free calcium concentration of 400 nM), 1.167 mM MgCl2, 10 mM EGTA, 154 mM KCl, 10 mM HEPES, 31.25/ 10 mM KOH/EGTA and 15 mM KOH with pH 7.2. Automated patch clamp on hERG-expressing CHO cell line was performed also as previously described (Skarsfeldt et al., [2016]).
Individual IC50 values were calculated for each cell with the built-in nonlinear fit log(inhibitor) vs. normalized response equation:
Where Y is the normalized response, from 100, corresponding to current recorded during saline perfusion, down to 0, corresponding to currents recorded in the presence of bicuculline methiodide 100 μM. […]
In general terms: In patch-clamp work, channel activity is measured electrically.

The next assay deals with Kv7.1/KCNE1 (Homo sapiens, UniProt P51787). Nature of the assay: Two-electrode voltage clamp in Xenopus laevis oocytes, Kv7.1/KCNE1. The class given is cell-based. The settings on record: BBP 10 μM, TEVC, n = 5. On the procedure:
cRNA was prepared from linearized plasmids using the mMESSAGE mMACHINE T7 kit (Ambion, USA) and quantified by UV spectroscopy (NanoDrop, Thermo Scientific, Wilmington, USA). Xenopus laevis oocytes were acquired from EcoCyte Bioscience (Castrop-Rauxel, Germany). Oocytes were injected with 50 nL cRNA and currents were recorded after 2 days of incubation at 19°C. Currents were recorded at a sampling rate of 10 kHz using a TEVC amplifier (Dagan CA-1B; IL, USA), and borosilicate glass recording electrodes (Module Ohm, Herlev, Denmark), made with a DMZ Universal Puller (Zeitz Instruments, Martinsried, Germany) with a resistance of 0.5–1 MΩ when filled with 2 M KCl. Oocytes were superfused with Kulori (pH 7.4) solution containing NaCl 90 mM, KCl 4 mM, MgCl2 1 mM, CaCl2 1 mM, 4-(2-hydroxyethyl)-1-piperazineethanesulfonic acid 5 mM, and currents were elicited with the voltage protocols previously indicated (Skarsfeldt et al., [2016]), from a holding potential of −80 mV. […]
To assess the effect of BBP on other calcium-activated potassium channels (hBK, hSK3 WT, rSK3 H491N, and hIK), each individual current was first normalized to its cell size using membrane's capacitance (pA/pF) before statistical analysis. […] Statistical significance between saline and the effect of both BBP and the corresponding reference compound was determined for each channel using one-way ANOVA analysis. […]
For orientation: In two-electrode clamp one electrode senses voltage and the other passes current.

Assay [1] has as its system all three SK channel subtypes. Nature of the assay: Automated patch clamp, summary over all three SK channel subtypes. The class given is cell-based, human. The following applies: summary value, read-out: IC50 on all three SK channel subtypes (similar potency). How it is done: as §1, §2
Where Y is the normalized response, from 100, corresponding to current recorded during saline perfusion, down to 0, corresponding to currents recorded in the presence of bicuculline methiodide 100 μM. X is the log of the BBP concentration. A standard Hill Slope of −1 was considered for this purpose. […]

For `c1cc(-c2nc3ccccc3[nH]2)nc(-c2nc3ccccc3[nH]2)c1` [BBP, 2,6-Bis(2-benzimidazolyl)pyridine], the IC50 on hSK1 is 700 ± 200 nM; in assay [1], 400 nM and ~400 nM. Moreover, the “Effect on Kv7.1/KCNE1 current” value at Kv7.1/KCNE1 is “did not have any effect; also recorded: did not significantly affect”.

A word on the IC50: it is the concentration at which inhibition is half-maximal.
